Test results published in patent US20210046071A1, “TETRACYCLIC COMPOUNDS AND THEIR SALTS, COMPOSITIONS, AND METHODS FOR THEIR USE” (Senhwa Biosciences, Inc., priority 2019, published 2021).
Read-outs that look alike come from different tables or passages of the source.

Test: Pharmacokinetic studies in human, Compound I in plasma by LC/MS/MS
Type: in vivo
Settings: human, plasma, iv; for AUC(0-inf): read-out: AUC∞; for half-life: read-out: T1/2 (converted)
Experimental: Pharmacokinetic studies and dose escalation studies were conducted in adult patients with metastatic, recurrent, locally, advanced, or unresectable solid malignancy (patients with histologically and/or cytologically confirmed solid malignancy), who received prior anti-cancer treatment(s) until disease progression, at 10 different dose levels of Compound I. Groups 1-7 were administered intravenously on days 1 and 8 of a 4-week cycle at 50, 100, 150, 200, 250, 325, and 475 mg/m^2 (lyophilized formulation), respectively. Groups 8-10 were administered intravenously on days 1,8, and 15 of a 4-week cycle at 325, 475, and 650 mg/m^2 (lyophilized formulation), respectively. Each patient received each dose over 1 hour by IV infusion on days described above.
They lyophilized formulation was reconstituted with 5% glucose in sterile water, or similar biologically acceptable fluid, for IV infusion.
For patients in Groups 1-7, blood samples were typically collected at Day 1 at pre-infusion (t=−1 h), during infusion at about 30 minutes (t=−0.5 h), immediately post infusion (t=0 h), 30 min post-infusion, 1 h post-infusion, 2 h post-infusion, 4 h post-infusion, and 6 h post-infusion, as well as at about 24 h post-infusion, 48 h post-infusion, and 72 h post-infusion. On Day 8, blood samples were typically collected at pre-infusion (t=−1 h), during infusion at about 30 minutes (t=−0.5 h), immediately post infusion (t=0 h), 30 min post-infusion, 1 h post-infusion, 2 h post-infusion, 4 h post-infusion, and 6 h post-infusion, as well as at about 24 h post-infusion, and 168 h post-infusion (Day 15).
For patients in Groups 8-10, blood samples were typically collected at Day 1 at pre-infusion (t=−1 h), during infusion at about 30 minutes (t=−0.5 h), immediately post infusion (t=0 h), 30 min post-infusion, 1 h post-infusion, 2 h post-infusion, 4 h post-infusion, and 6 h post-infusion, as well as at about 24 h post-infusion, 48 h post-infusion, and 72 h post-infusion. On Day 8, blood samples were typically collected at pre-infusion (t=−1 h). On Day 15, blood samples were typically collected at pre-infusion (t=−1 h), during infusion at about 30 minutes (t=−0.5 h), immediately post infusion (t=0 h), 30 min post-infusion, 1 h post-infusion, 2 h post-infusion, 4 h post-infusion, and 6 h post-infusion, as well as at about 24 h post-infusion, and 168 h post-infusion (Day 22).
Levels of Compound I in patient's plasma were analyzed by liquid chromatography tandem mass spectrometry (LC/MS/MS) assay. Experimental procedures of the validated methods are summarized below. The pharmacokinetic parameters after first dose and second dose for Groups 1-7 and after first dose and third dose for Groups 8-10 are shown in Tables 2A-2J. In Tables 2A-2J: SD=standard deviation; Cmax=maximum observed concentration; D=dose; Tmax=time to maximum observed concentration; T1/2=elimination half-life; Vd=volume of distribution; CL=drug clearance; and AUC∞=area under the concentration-time curve from time zero to infinity (total exposure).
The concentrations of Compound I in human plasma samples collected from subjects of as discussed above. Compound I concentrations in plasma samples were measured based on 9 levels of calibration standards from 5.00 to 5000 ng/mL, and 3 levels of QC at 15.0 ng/mL (low), 2500 ng/mL (mid), and 4000 ng/mL (high).
Two reference standard master stock solutions of Compound I were prepared by dissolving the Compound 1 reference standard with 50:50:0.1 ACN:diH2O:FA (v/v/v) and sonicating for 7 minutes (diH2O=deionized water). The resulting solutions were further diluted with 50:50:0.1 ACN:diH2O:FA (v/v/v) into a series of working stock solutions (WSS) for spiking of Compound I calibration standards and QC samples. The master stock solutions were prepared fresh on the day of assay, or stored at nominal 2° C. to 8° C. for later use. Master stock solutions were used within the stability timeframe. […]

[1] = 150 mg/m2, Group 3, 150 mg/m^2 IV, Day 8, mean, n = 4
[2] = 200 mg/m2, Group 4, 200 mg/m^2 IV, Day 1, mean, n = 4
[3] = 200 mg/m2, Group 4, 200 mg/m^2 IV, Day 8, mean, n = 4
[4] = 250 mg/m2, Group 5, 250 mg/m^2 IV, Day 1, mean, n = 3
[5] = 250 mg/m2, Group 5, 250 mg/m^2 IV, Day 8, mean, n = 3
[6] = 325 mg/m2, Group 6, 325 mg/m^2 IV, Day 1, mean, n = 3
[7] = 325 mg/m2, Group 6, 325 mg/m^2 IV, Day 8, mean, n = 3
[8] = 325 mg/m2, Group 8, 325 mg/m^2 IV, Day 1, mean, n = 3
[9] = 325 mg/m2, Group 8, 325 mg/m^2 IV, Day 1, mean, n = 4
[10] = 325 mg/m2, Group 8, 325 mg/m^2 IV, Day 15, mean, n = 4
[11] = 475 mg/m2, Group 7, 475 mg/m^2 IV, Day 1, mean, n = 3
[12] = 475 mg/m2, Group 7, 475 mg/m^2 IV, Day 8, mean, n = 3
[13] = 475 mg/m2, Group 9, 475 mg/m^2 IV, Day 1, mean, n = 5
[14] = 475 mg/m2, Group 9, 475 mg/m^2 IV, Day 15, mean, n = 4
[15] = 475 mg/m2, Group 9, 475 mg/m^2 IV, Day 15, mean, n = 5
[16] = 650 mg/m2, Group 10, 650 mg/m^2 IV, Day 1, mean, n = 5
[17] = 650 mg/m2, Group 10, 650 mg/m^2 IV, Day 15, mean, n = 5

- Tmax [1]: 0.646 h
- Vd [1]: 939 L
- clearance [1]: 203 mL/min
- AUC(0-inf) [1]: 21800 ng·h/mL
- half-life [1]: 59.1 h
- Cmax [2]: 8950 ng/mL
- Tmax [2]: 0.854 h
- Vd [2]: 1700 L
- clearance [2]: 505 mL/min
- AUC(0-inf) [2]: 15100 ng·h/mL
- half-life [2]: 41.9 h
- Cmax [3]: 1180 ng/mL
- Tmax [3]: 1.3 h
- Vd [3]: 2050 L
- clearance [3]: 470 mL/min
- AUC(0-inf) [3]: 16200 ng·h/mL
- half-life [3]: 53.5 h
- Cmax [4]: 1410 ng/mL
- Tmax [4]: 1.19 h
- Vd [4]: 1450 L
- clearance [4]: 348 mL/min
- AUC(0-inf) [4]: 20900 ng·h/mL
- half-life [4]: 47.9 h
- Cmax [5]: 771 ng/mL
- Tmax [5]: 1.2 h
- Vd [5]: 2160 L
- clearance [5]: 258 mL/min
- AUC(0-inf) [5]: 28100 ng·h/mL
- half-life [5]: 96.9 h
- Cmax [6]: 1070 ng/mL
- Tmax [6]: 1.02 h
- Vd [6]: 1930 L
- clearance [6]: 390 mL/min
- AUC(0-inf) [6]: 23500 ng·h/mL
- half-life [6]: 66.9 h
- Cmax [7]: 1040 ng/mL
- Tmax [7]: 0.672 h
- Vd [7]: 2220 L
- clearance [7]: 307 mL/min
- AUC(0-inf) [7]: 29000 ng·h/mL
- half-life [7]: 86.5 h
- Vd [8]: 2320 L
- clearance [8]: 322 mL/min
- AUC(0-inf) [8]: 29100 ng·h/mL
- half-life [8]: 83.4 h
- Cmax [9]: 1140 ng/mL
- Tmax [9]: 0.767 h
- Cmax [10]: 21100 ng/mL
- Tmax [10]: 0.783 h
- Cmax [11]: 1940 ng/mL
- Tmax [11]: 0.861 h
- Vd [11]: 2590 L
- clearance [11]: 418 mL/min
- AUC(0-inf) [11]: 36200 ng·h/mL
- half-life [11]: 81.8 h
- Cmax [12]: 1710 ng/mL
- Tmax [12]: 0.678 h
- Vd [12]: 2430 L
- clearance [12]: 482 mL/min
- AUC(0-inf) [12]: 35400 ng·h/mL
- half-life [12]: 73.8 h
- Cmax [13]: 1750 ng/mL
- Tmax [13]: 1.18 h
- Vd [13]: 2320 L
- clearance [13]: 460 mL/min
- AUC(0-inf) [13]: 36300 ng·h/mL
- half-life [13]: 61.5 h
- Vd [14]: 2570 L
- clearance [14]: 532 mL/min
- AUC(0-inf) [14]: 32500 ng·h/mL
- half-life [14]: 59 h
- Cmax [15]: 2870 ng/mL
- Tmax [15]: 0.737 h
- Cmax [16]: 3080 ng/mL
- Tmax [16]: 0.81 h
- Vd [16]: 3700 L
- AUC(0-inf) [16]: 57500 ng·h/mL
- half-life [16]: 122 h
- Cmax [17]: 4170 ng/mL
- Tmax [17]: 1.05 h
- Vd [17]: 2620 L
- AUC(0-inf) [17]: 62200 ng·h/mL
- half-life [17]: 93.6 h
SMILES: Cc1cnc(CNC(=O)c2c(=O)c3ccc(N4CCCN(C)CC4)nc3n3c2sc2ccccc23)cn1 [Compound I, 2-(4-Methyl-[1,4]diazepan-1-yl)-5-oxo-5H-7-thia-1,11b-diaza-benzo[c]fluorene-6-carboxylic acid (5-methyl-pyrazin-2-ylmethyl)-amide]
